Reference: patent publication US12503476B2, “Ring-fused 2-pyridone compounds, methods for preparation thereof and their use in the treatment and/or prevention of a disease involving gram-positive bacteria” (QURETECH BIO AB, priority 2020, dated 2025)
Converted amounts (≈) assume the structure as drawn. Read-outs that look alike come from different tables or passages of the source.

Legend:
E. faecalis [1] = assay: Minimum Inhibitory Concentration (MIC) assay, E. faecalis; assay type: cell-based, Enterococcus faecalis; details: for MIC: first figure of MIC/MBC, read-out: MIC for E. faecalis; for Growth inhibition of the pathogen of interest compared to the compound of Example 14 in WO 2018/229141: conclusion from Table 3 (E. faecalis and MRSA)
Description: (§1) The cultures (200 μl) were incubated at 37° C. for 24 h. […] The MIC was measured in micromolar concentration, i.e. μM. Objectively, this was determined by measuring the optical density (i.e. OD) of the test cultures at 600 nm using a spectrophotometer. As used herein, OD600 stands for optical density at a wavelength of 600 nm (i.e. 600 nanometers).

MRSA [2] = assay: Minimum Inhibitory Concentration (MIC) assay, MRSA; assay type: cell-based, Methicillin-resistant Staphylococcus aureus; details: no antibiotic, 24 h, 37° C., n.d. = activity not observed at the concentrations tested, read-out: MIC for MRSA
Description: as §1

E. faecalis OG1RF = assay: Combined activity with gentamicin, vancomycin or ampicillin, E. faecalis OG1RF; assay type: cell-based, Enterococcus faecalis; details: gentamicin 16 μg/ml; for Synergistic effect when combined with gentamicin: 24 h; for E. faecalis activity, combination with gentamicin compared to gentamicin alone, compound alone and comparative example alone / E. faecalis activity, combination with gentamicin compared to the combination of the comparative example and gentamicin: subinhibitory compound 1-4 μM, OD600 24 h
Description: […]. The concentrations used in the experiments with E. faecalis OG1RF were 16 μg/ml gentamicin, 1 μg/ml vancomycin or 1 μg/ml ampicillin. In experiments where combinations were tested against MRSA 1369, 0.05 μg/ml gentamicin, 1 μg/ml vancomycin or 16 μg/ml ampicillin was used.
Bacterial cultures (190 μl) at a starting OD=0.001 at OD600 were incubated together with either subinhibitory concentrations of gentamicin/vancomycin/ampicillin or compound alone, or a combination of the two. The cultures (200 μl) were incubated at 37° C. for 24 h. A control sample without compound and gentamicin/vancomycin/ampicillin but containing compound vehicle (DMSO) and gentamicin/vancomycin/ampicillin vehicle (MQ water) was performed the same way. After 24 h, the effect on bacterial growth compared to untreated control samples was determined by measuring optical density at 600 nm with a spectrophotometer.
[…]. MIC/MBC values for the compounds administered alone are also shown for comparison. Unless otherwise stated, the compound was provided in a concentration of 1 μM.

MRSA [3] = assay: Minimum Bactericidal Concentration (MBC) assay, MRSA; details: compound alone, no antibiotic, MIC cultures plated on BHI, second figure of MIC/MBC, n.d. = activity not observed at the concentrations tested; for MBC for MRSA: Table 3; for MBC: Staphylococcus aureus, MRSA, read-out: MBC for MRSA, Table 3
E. faecalis [4] = assay: Minimum Bactericidal Concentration (MBC) assay, E. faecalis; details: for MBC for E. faecalis: second figure of MIC/MBC; for MBC: Enterococcus faecalis, read-out: MBC for E. faecalis
[5] = Enterococcus faecalis, Table 4, compound administered alone, n.d. = activity not observed
[6] = Table 3, compound alone, no antibiotic, 24 h, 37° C., OD600, n.d. = activity not observed at the concentrations tested
[7] = Table 3, compound alone, OD600, first figure of MIC/MBC
[8] = Table 3, compound alone, no antibiotic, MIC cultures plated on BHI, n.d. = activity not observed at the concentrations tested
[9] = Table 4, compound administered alone, n.d. = activity not observed
[10] = compound 1 μM, n.d. = activity not observed
[11] = Enterococcus faecalis, 24 h, Table 3, compound alone, no antibiotic, 24 h, 37° C., OD600, n.d. = activity not observed at the concentrations tested
[12] = Staphylococcus aureus, MRSA, Table 3, compound alone, OD600, first figure of MIC/MBC

Row | SMILES | MIC (E. faecalis [1]; [5]) | MIC (E. faecalis [1]; [6]) | MIC (MRSA [2]; [7]) | MIC (E. faecalis [1]; [9]) | MIC (E. faecalis [1]; [11]) | MIC (MRSA [2]; [12]) | Synergistic effect when combined with gentamicin (E. faecalis OG1RF; compound 2 μM) | MBC for MRSA (MRSA [3]) | MBC for E. faecalis (E. faecalis [4]; [8]) | OD600 at 24 h when combined with gentamicin (E. faecalis OG1RF; compound 1 μM) | Synergistic effect when combined with gentamicin (E. faecalis OG1RF; [10]) | MBC (MRSA [3]) | MBC (E. faecalis [4]) | MBC for E. faecalis (E. faecalis [4]; [9]) | Growth inhibition of the pathogen of interest compared to the compound of Example 14 in WO 2018/229141 (E. faecalis [1]; compound alone) | E. faecalis activity, combination with gentamicin compared to gentamicin alone, compound alone and comparative example alone (E. faecalis OG1RF) | E. faecalis activity, combination with gentamicin compared to the combination of the comparative example and gentamicin (E. faecalis OG1RF)
1 | O=C(O)C12C[C@@H](c3cccc(C(F)(F)F)c3)C1Sc1c(C3CC3)c(Cc3cccc4ccccc34)cc(=O)n12 (single isomer, unassigned) [Example 1] | 10 µM (≈ 5.48 µg/mL) | 10 µM (≈ 5.48 µg/mL) | 5 µM (≈ 2.74 µg/mL) | – | – | – | Yes | 10 µM | 25 µM | – | – | – | – | – | – | – | –
2 | O=C(O)C12C[C@@H](c3cccc(C(F)(F)F)c3)C1Sc1c(C3CC3)c(Cc3cccc4ccccc34)cc(=O)n12 (single isomer, unassigned) [Example 2] | – | 10 µM (≈ 5.48 µg/mL) | 5 µM (≈ 2.74 µg/mL) | 10 µM (≈ 5.48 µg/mL) | – | – | – | 10 µM | – | OD600 = 0.1 | Yes | – | – | – | – | – | –
3 | O=C(O)C12C[C@@H](c3cccc(C(F)(F)F)c3)C1Sc1c(C3CC3)c(Cc3cccc4ccccc34)cc(=O)n12 (single isomer, unassigned) [Example 3] | – | – | – | 10 µM (≈ 5.48 µg/mL) | 10 µM (≈ 5.48 µg/mL) | 5 µM (≈ 2.74 µg/mL) | – | – | – | OD600 = 0.35 at 24 h | Yes | 5 µM (≈ 2.74 µg/mL) | 25 µM (≈ 13.7 µg/mL) | 25 µM | – | – | –
4 | CN(C)c1c(Cc2cccc3ccccc23)c(C2CC2)c2n(c1=O)C1(C(=O)O)C[C@@H](c3cccc(C(F)(F)F)c3)C1S2 (stereo partly shown) [Example 5] | 5 µM (≈ 2.95 µg/mL) | – | – | – | 5 µM (≈ 2.95 µg/mL) | 3 µM (≈ 1.77 µg/mL) | – | – | – | OD600 = 0 | Yes | 4 µM (≈ 2.36 µg/mL) | 25 µM (≈ 14.8 µg/mL) | – | substantially similar extent or to a higher extent | much larger extent | much larger extent
5 | O=C(O)C12C[C@@H](c3ccc(C(F)(F)F)cc3)C1Sc1c(C3CC3)c(Cc3cccc4ccccc34)cc(=O)n12 (stereo partly shown) [Example 8] | – | – | – | – | 5 µM (≈ 2.74 µg/mL) | 5 µM (≈ 2.74 µg/mL) | – | – | – | – | – | 10 µM (≈ 5.48 µg/mL) | – | – | substantially similar extent or to a higher extent | – | –
6 | O=C(O)C12C[C@@H](c3cccc(Cl)c3)C1Sc1c(C3CC3)c(Cc3cccc4ccccc34)cc(=O)n12 (stereo partly shown) [Example 9] | 5 µM (≈ 2.57 µg/mL) | 5 µM (≈ 2.57 µg/mL) | – | – | – | 5 µM (≈ 2.57 µg/mL) | – | 1 µM | – | OD600 = 0.1 | Yes | – | 25 µM (≈ 12.9 µg/mL) | 25 µM | substantially similar extent or to a higher extent | – | –

The next lines start with results.

Row | MIC (E. faecalis [1]; [5]) | MIC (E. faecalis [1]; [6]) | MIC (MRSA [2]; [7]) | MIC (E. faecalis [1]; [9]) | MIC (E. faecalis [1]; [11]) | MIC (MRSA [2]; [12]) | SMILES | Synergistic effect when combined with gentamicin (E. faecalis OG1RF; compound 2 μM) | MBC for MRSA (MRSA [3]) | MBC for E. faecalis (E. faecalis [4]; [8]) | OD600 at 24 h when combined with gentamicin (E. faecalis OG1RF; compound 1 μM) | Synergistic effect when combined with gentamicin (E. faecalis OG1RF; [10]) | MBC (MRSA [3]) | MBC (E. faecalis [4]) | MBC for E. faecalis (E. faecalis [4]; [9]) | Growth inhibition of the pathogen of interest compared to the compound of Example 14 in WO 2018/229141 (E. faecalis [1]; compound alone) | E. faecalis activity, combination with gentamicin compared to gentamicin alone, compound alone and comparative example alone (E. faecalis OG1RF) | E. faecalis activity, combination with gentamicin compared to the combination of the comparative example and gentamicin (E. faecalis OG1RF)
7 | – | 10 µM (≈ 5.14 µg/mL) | 5 µM (≈ 2.57 µg/mL) | – | – | – | O=C(O)C12C[C@@H](c3cccc(Cl)c3)C1Sc1c(C3CC3)c(Cc3cccc4ccccc34)cc(=O)n12 (stereo partly shown) [Example 10] | – | 10 µM | – | – | – | – | – | – | – | – | –
8 | – | 4 µM (≈ 2.06 µg/mL) | 4 µM (≈ 2.06 µg/mL) | – | – | – | O=C(O)C12C[C@@H](c3cccc(Cl)c3)C1Sc1c(C3CC3)c(Cc3cccc4ccccc34)cc(=O)n12 (stereo partly shown) [Example 11] | – | 10 µM | 25 µM | – | – | – | – | – | substantially similar extent or to a higher extent | much larger extent | –
9 | 3 µM (≈ 1.67 µg/mL) | – | – | – | 3 µM (≈ 1.67 µg/mL) | 2 µM (≈ 1.11 µg/mL) | CN(C)c1c(Cc2cccc3ccccc23)c(C2CC2)c2n(c1=O)C1(C(=O)O)C[C@@H](c3cccc(Cl)c3)C1S2 (stereo partly shown) [Example 13] | – | – | – | OD600 = 0 | Yes | 4 µM (≈ 2.23 µg/mL) | 25 µM (≈ 13.9 µg/mL) | – | substantially similar extent or to a higher extent | much larger extent | much larger extent
10 | – | – | – | – | 10 µM (≈ 5.48 µg/mL) | 10 µM (≈ 5.48 µg/mL) | O=C(O)C12C[C@H](c3cc(Cl)cc(Cl)c3)C1Sc1c(C3CC3)c(Cc3cccc4ccccc34)cc(=O)n12 (stereo partly shown) [Example 16] | – | – | – | – | – | – | – | – | – | – | –
